From US20260078120A1, “SUBSTITUTED PYRIDOPYRIMIDINONES” (MIRATI THERAPEUTICS, INC., priority 2022, published 2026)
pIC50: −log10 of the molar value. Read-outs that look alike come from different tables or passages of the source.

Key:
[1] = system: SKBR3 (PI3Kα wild type) cells; test: CellTiter-Glo 2.0 luminescent cell viability assay, 72 hours, SKBR3 cells; type: cell-based; conditions: Homo sapiens, SK-BR-3, 72 h, SKBR3 (PI3Kα wild type) cells, CellTiter-Glo, approximately 72 hours; read-out: SKBR3 (WT) Viability IC50
Method in brief: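 Viability measured via CTG luminescence following roughly 72 hours of compound exposure at 37° C. Dosing used a 10 um starting concentration diluted 1:4 over 10 points; percent-of-vehicle data fitted with a variable-slope four-parameter model for IC50.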

[2] = system: T47D (PI3Kα H1047R mutant) cells; test: CellTiter-Glo 2.0 luminescent cell viability assay, 72 hours, T47D cells; type: cell-based; conditions: T47D (PI3Kα H1047R mutant) cells, CellTiter-Glo, approximately 72 hours, read-out: T47D (H1047R mutant) Viability IC50
Method in brief: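 Viability was measured by CellTiter-Glo 2.0 luminescence after approximately 72 h of compound exposure at 37° C. Plating was 1000 cells per well the day before dosing, with ten 1:4 dilutions from a 10 µM top concentration. Values as percent of vehicle were fitted by variable-slope log(inhibitor) regression to give IC50.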

| pIC50 [1] | pIC50 ([2]; Homo sapiens, T47D, 72 h) | pIC50 [2] | Compound |
| --- | --- | --- | --- |
| < 5.00 | 6.55 |  | COC1CN(c2nc3c([C@@H](C)Nc4ccccc4C(=O)O)cc(C)cn3c(=O)c2C#N)C1 [Example 11-111, (R)-2-((1-(3-cyano-2-(3-methoxyazetidin-1-yl)-7-methyl-4-oxo-4H-pyrido[1,2-a]pyrimidin-9-yl)ethyl)amino)benzoic acid] |
| < 5.00 | 5.96 |  | Cc1cc([C@H](C)OC(=O)c2nc(Cl)ccc2N)c2nc(N3CCCCC3)c(C#N)c(=O)n2c1 [Example 11-329, (S)-1-(3-cyano-7-methyl-4-oxo-2-(piperidin-1-yl)-4H-pyrido[1,2-a]pyrimidin-9-yl)ethyl 3-amino-6-chloropicolinate] |
| < 5.00 | 5.08 |  | Cc1cc(C(C)Nc2ccccc2C(=O)O)c2nc(-c3cnn(C)c3)cc(=O)n2c1 (stereo not shown) [Example 11-405, 2-((1-(7-methyl-2-(1-methyl-1H-pyrazol-4-yl)-4-oxo-4H-pyrido[1,2-a]pyrimidin-9-yl)ethyl)amino)benzoic acid] |
| < 5.00 | 6.02 |  | Cc1cc([C@@H](C)Nc2ccc(Cl)nc2C(=O)O)c2nc(N3CCN(c4ccc(C#N)cc4)C[C@@H]3C)c(C#N)c(=O)n2c1 [Example 11-129, 6-chloro-3-(((R)-1-(3-cyano-2-((S)-4-(4-cyanophenyl)-2-methylpiperazin-1-yl)-7-methyl-4-oxo-4H-pyrido[1,2-a]pyrimidin-9-yl)ethyl)amino)picolinic acid] |
| < 5.00 | 6.91 |  | Cc1cc([C@@H](C)Nc2ccccc2C(=O)O)c2nc(N3CCN(c4ccc(C#N)c5cc(O)ccc45)CC3)c(C)c(=O)n2c1 [Example 11-254, (R)-2-((1-(2-(4-(4-cyano-6-hydroxynaphthalen-1-yl)piperazin-1-yl)-3,7-dimethyl-4-oxo-4H-pyrido[1,2-a]pyrimidin-9-yl)ethyl)amino)benzoic acid] |
| < 5.00 | 6.46 |  | CO[C@@H]1CN(c2nc3c([C@@H](C)Nc4ccccc4C(=O)O)cc(C)cn3c(=O)c2C)CC1(F)F [Example 11-117, 2-(((R)-1-(2-((R)-3,3-difluoro-4-methoxypyrrolidin-1-yl)-3,7-dimethyl-4-oxo-4H-pyrido[1,2-a]pyrimidin-9-yl)ethyl)amino)benzoic acid] |
| < 5.00 | 5.40 |  | Cc1cc([C@@H](C)Nc2ccccc2C(=O)O)c2nc(N3CCC(N(C)C)CC3)c(C)c(=O)n2c1 [Example 11-311, (R)-2-((1-(2-(4-(dimethylamino)piperidin-1-yl)-3,7-dimethyl-4-oxo-4H-pyrido[1,2-a]pyrimidin-9-yl)ethyl)amino)benzoic acid] |
| < 5.00 | 6.73 |  | COC1CN(c2nc3c([C@@H](C)Nc4ccccc4C(=O)O)cc(C)cn3c(=O)c2C)C1 [Example 11-112, (R)-2-((1-(2-(3-methoxyazetidin-1-yl)-3,7-dimethyl-4-oxo-4H-pyrido[1,2-a]pyrimidin-9-yl)ethyl)amino)benzoic acid] |
| < 5.00 | 6.43 |  | Cc1cc([C@@H](C)Nc2ccccc2C(=O)O)c2nc(N3CCN(c4ccccc4C#N)CC3)c(C#N)c(=O)n2c1 [Example 11-260, (R)-2-((1-(3-cyano-2-(4-(2-cyanophenyl)piperazin-1-yl)-7-methyl-4-oxo-4H-pyrido[1,2-a]pyrimidin-9-yl)ethyl)amino)benzoic acid] |
| < 5.00 | 6.88 |  | Cc1cc([C@@H](C)Nc2ccccc2C(=O)O)c2nc(N3C[C@H](C)C(F)(F)C3)c(C)c(=O)n2c1 [Example 11-119, 2-(((R)-1-(2-((S)-3,3-difluoro-4-methylpyrrolidin-1-yl)-3,7-dimethyl-4-oxo-4H-pyrido[1,2-a]pyrimidin-9-yl)ethyl)amino)benzoic acid] |
| < 5.00 | < 5.00 |  | Cc1cc([C@@H](C)Nc2ccccc2C(=O)O)c2nc(N3CCC4(CCO4)C3)c(C#N)c(=O)n2c1 (stereo partly drawn) [Example 11-285, 2-(((1R)-1-(3-cyano-7-methyl-4-oxo-2-(1-oxa-6-azaspiro[3.4]octan-6-yl)-4H-pyrido[1,2-a]pyrimidin-9-yl)ethyl)amino)benzoic acid] |
| 5.09 | 6.44 |  | Cc1cc(C(C)Nc2ccc(Cl)nc2C(=O)O)c2nc(N3CCCCC3)c(C)c(=O)n2c1 (stereo not shown) [Example 11-359, 6-chloro-3-((1-(3,7-dimethyl-4-oxo-2-(piperidin-1-yl)-4H-pyrido[1,2-a]pyrimidin-9-yl)ethyl)amino)picolinic acid] |
| < 5.00 | 6.93 |  | CNC(=O)c1ccc(N2CCN(c3nc4c([C@@H](C)Nc5ccccc5C(=O)O)cc(C)cn4c(=O)c3C)CC2)cc1 [Example 11-249, (R)-2-((1-(3,7-dimethyl-2-(4-(4-(methylcarbamoyl)phenyl)piperazin-1-yl)-4-oxo-4H-pyrido[1,2-a]pyrimidin-9-yl)ethyl)amino)benzoic acid] |
| < 5.00 | 6.42 |  | Cc1cc([C@@H](C)Nc2cccc(F)c2C(=O)O)c2nc(N3Cc4ccccc4C3)c(C#N)c(=O)n2c1 [Example 11-307, (R)-2-((1-(3-cyano-2-(isoindolin-2-yl)-7-methyl-4-oxo-4H-pyrido[1,2-a]pyrimidin-9-yl)ethyl)amino)-6-fluorobenzoic acid] |
| < 5.00 | 6.56 |  | Cc1cc([C@@H](C)Nc2ccccc2C(=O)O)c2nc(N3CCOCC3)c(C#N)c(=O)n2c1 [Example 11-318, (R)-2-((1-(3-cyano-7-methyl-2-morpholino-4-oxo-4H-pyrido[1,2-a]pyrimidin-9-yl)ethyl)amino)benzoic acid] |
| < 5.00 | 7.21 |  | Cc1cc([C@@H](C)Nc2ccccc2C(=O)O)c2nc(N3CCC(O)(C(C)C)C3)c(C)c(=O)n2c1 (stereo partly drawn) [Example 10-135, 2-(((1R)-1-(2-(3-hydroxy-3-isopropylpyrrolidin-1-yl)-3,7-dimethyl-4-oxo-4H-pyrido[1,2-a]pyrimidin-9-yl)ethyl)amino)benzoic acid] |
| < 5.00 | 6.89 |  | Cc1cc([C@@H](C)Nc2ccccc2C(=O)O)c2nc(N3C[C@H]4C[C@@H]3CN4CC(F)F)c(C)c(=O)n2c1 [Example 11-443, 2-(((R)-1-(2-((1R,4R)-5-(2,2-difluoroethyl)-2,5-diazabicyclo[2.2.1]heptan-2-yl)-3,7-dimethyl-4-oxo-4H-pyrido[1,2-a]pyrimidin-9-yl)ethyl)amino)benzoic acid] |
| < 5.00 | 5.89 |  | Cc1cc([C@@H](C)Nc2ccccc2C(=O)O)c2nc(NCC3CCOC3)c(C)c(=O)n2c1 (stereo partly drawn) [Example 11-197, 2-(((1R)-1-(3,7-dimethyl-4-oxo-2-(((tetrahydrofuran-3-yl)methyl)amino)-4H-pyrido[1,2-a]pyrimidin-9-yl)ethyl)amino)benzoic acid] |
| < 5.00 | 6.86 |  | Cc1cc([C@@H](C)Nc2ccccc2C(=O)O)c2nc(N3CCN(CC(F)(F)F)CC3)c(C#N)c(=O)n2c1 [Example 11-154, (R)-2-((1-(3-cyano-7-methyl-4-oxo-2-(4-(2,2,2-trifluoroethyl)piperazin-1-yl)-4H-pyrido[1,2-a]pyrimidin-9-yl)ethyl)amino)benzoic acid] |
| 5.08 |  | 5.96 | Cc1cc([C@@H](C)Nc2ccc(Cl)nc2C(=O)O)c2nc(N3Cc4ccccc4C3)c(C)c(=O)n2c1 [Example 11-360, (R)-6-chloro-3-((1-(2-(isoindolin-2-yl)-3,7-dimethyl-4-oxo-4H-pyrido[1,2-a]pyrimidin-9-yl)ethyl)amino)picolinic acid] |
